Test results as given in patent publication US5849587A, “Method of inhibiting viral replication in eukaryotic cells and of inducing apoptosis of virally-infected cells” (Cornell Research Foundation, Inc., priority 1995, dated 1998).

Columns and labels:
Deoxyhypusyl hydroxylase = target: T1, Deoxyhypusyl hydroxylase (Homo sapiens, UniProt Q9BU89); experiment: Cellular deoxyhypusyl hydroxylase (hypusine formation) inhibition, human B-cells and human smooth muscle cells; type: cell-based; settings: concentration for half-maximal inhibition
T1 construct: endogenous in cells
T1 sequence (Q9BU89 1-302): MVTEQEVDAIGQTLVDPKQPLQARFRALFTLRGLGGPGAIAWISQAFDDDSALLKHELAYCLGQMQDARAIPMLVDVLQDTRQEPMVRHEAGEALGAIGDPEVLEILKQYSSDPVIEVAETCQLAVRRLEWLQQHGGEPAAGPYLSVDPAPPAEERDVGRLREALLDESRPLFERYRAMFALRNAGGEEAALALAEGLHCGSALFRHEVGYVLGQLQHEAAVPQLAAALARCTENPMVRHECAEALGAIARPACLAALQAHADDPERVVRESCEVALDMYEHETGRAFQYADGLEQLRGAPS
Procedure: (§1) The cell-free enzyme assay was performed to test a pilot peptidomimetic which can be equipped with hydroxypyridone warheads. The cell culture studies were performed to establish the inherent inhibitory potency of such hydroxypyridones.
DOHH Assay. The intracellular conversion of peptide-bound deoxyhypusine to peptidyl hypusine was determined after preincubation of human T lymphocyte-derived cells (i.e. ACH-2) [Clouse et al., J. Immunol. 142, 431-438 (1989), which is hereby incorporated by reference] with the hypusine inhibitors mimosine and HK-1 for 60 minutes, followed by labeling for 21 hours with ^3 H-spermidine (3.75 μCi/ml) in wells containing 3×10^6 cells suspended in 8 ml of serum-supplemented and antibiotic-containing RPMI 1640 medium. Cells were then split into two groups, one of them being harvested immediately to assess degree of DOHH inhibition, and the other harvested after transfer of the cells into inhibitor-free medium for 2 hours to measure resumption of DOHH activity. Harvesting consisted in precipitation of washed cells with 10% TCA containing 1 mM each of putrescine, spermidine, and spermine. Cellular proteins from each sample were then hydrolyzed in 6N HCl at 110° C. for 16 hours. The hydrolysate was analyzed for labeled amino acids on an amino acid analyzer by published methods [Park et al., J. Biol. Chem., 257, 7217-7222 (1982), which is hereby incorporated by reference]. The retention times of hypusine and deoxyhypusine were determined from standards. Similar studies were performed in human B-cells and human smooth muscle cells.
The concentration required for half-maximal inhibition (ID50) of the cellular enzyme activity is identified for each compound.

[1] = system: deoxyhypusyl hydroxylase (DOHH); experiment: Cell-free DOHH assay with purified enzyme and unhydroxylated eIF-5A precursor; type: biochemical; settings: purified rat enzyme, unhydroxylated eIF-5A, FIG. 4B
Procedure: The graph gives the chromatographic profile of metabolically labeled hypusine/deoxyhypusine obtained after incubation of the purified rat enzyme with unhydroxylated eIF-5A in the absence (open squares) and presence (closed squares) of mimetic III. […] Peptides of appropriate structure or peptidomimetics like mimetic III can serve as "carriers" for a reactive moiety termed "warhead" that, by virture of its attachment to the carrier, becomes precisely oriented to interact optimally with the active site metal ion of DOHH. In the case of mimetic III, such a warhead moiety can be attached at the site indicated by the asterisk in FIG. 4A.
as §1
DOHH Assay. Enzyme activity was purified and determined, as described by Abbruzzese et al., J Biol Chem 261:3085-9 (1986), which is hereby incorporated by reference. Briefly, the enzyme is offered as labeled deoxyhypusine-containing eIF-5A precursor, and, following standard incubation conditions, the conversion into hypusine residues is measured by chromatographic amino acid separation of the hydrolyzed proteins. […] Biophys. Acta, 1221, 115-124 (1994), which is hereby incorporated by reference]. […]

| SMILES | Deoxyhypusyl hydroxylase ID50 (cellular) (Deoxyhypusyl hydroxylase) | deoxyhypusine-to-hypusine conversion in presence of compound [1] | deoxyhypusine-to-hypusine conversion in presence of compound ([1]; listed as mimetic of Formula III) |
| --- | --- | --- | --- |
| CCc1c(O)c(=O)ccn1CC [HK-2] | 50 |  |  |
| COCCn1ccc(=O)c(O)c1C [HK-15] | 60 |  |  |
| C=CCn1ccc(=O)c(O)c1C [HK-16] | 50 |  |  |
| CCn1ccc(=O)c(O)c1C [HK-26] | 58 |  |  |
| CCCn1ccc(=O)c(O)c1C [HK-27] | 50 |  |  |
| NC(CO)C1CCC(=O)NC(CO)C(=O)N(C(Cc2ccccc2)C(=O)O)NC1=O (stereo not shown) [mimetic III] |  | clearly reduced | the deoxyhypusine-to-hypusine conversion was suppressed |
